Like-named read-outs stand apart in the source and are kept apart here.
Columns and labels:
VMAT2 = VMAT2 (Macaca fascicularis, UniProt A0A2K5UVB8); test: VMAT2 occupancy in NHP brain after i.v. NBI-750142, [^18F]AV-133 PET; format: in vivo, cynomolgus monkeys (Macaca fascicularis); conditions: for receptor occupancy at 0.084 mg/kg / receptor occupancy at 0.52 mg/kg / receptor occupancy at 0.026 mg/kg / receptor occupancy at 0.26 mg/kg / receptor occupancy at 0.78 mg/kg: cynomolgus monkey
Text: The aim of this study was to assess the relationship between NBI-750142 dose/plasma concentration and VMAT2 occupancy with [^18F]AV-133 using PET in non-human primate (NIP) brain. A radioligand, [^18F]AV-133, has been used to image and quantify brain VMAT2 in vivo.
Three non-naïve cynomolgus monkeys (Macaca fascicularis) were used in this study. The animals were judged to be in good health before the start of the study. At study origination the animals were 7 (female, EC865), 8 (male, GC786) and 9 (female, LC206) years old and weighed 4.2, 7.0, and 5.4 kg, respectively.
The animals were imaged with [^18F]AV-133 at baseline with vehicle (0.9% saline) and post NBI-750142 blockade on separate days. Vehicle and NBI-750142 were administered as an intravenous (i.v.) bolus followed by a constant infusion over 3 hours. [^18F]AV-133 was injected as an i.v. bolus, 1 h after administration of vehicle/NBI-750142. The design study is summarized below Table 2-1.
Dynamic data were acquired in the MicroPET Focus-220 camera (Siemens Microsystems, Knoxville, TN). Emission data were collected for 120 min post-injection and reconstructed into a series of 33 frames and all standard corrections were applied: normalization, random, scatter and attenuation. Dynamic brain PET images were transferred and analyzed using the image processing PMOD software package v3.802 (PMOD Technologies, Zurich, Switzerland). The PET images were rigidly aligned to a previously acquired animal's brain T1 MRI and then spatially normalized to a common cynomolgus MRI template for anatomical brain region definition.
Volumes of interest (VOIs) defined in the cynomolgus template space (see e.g., Ballanger et al. Neuroimage, 2013, 7:26-43) were applied to the spatially normalized PET images to compute time-activity curves (TACs, kBq/cm^3) for caudate (0.96 cm^3), putamen (1.34 cm^3) and cerebellum (3.81 cm^3). TACs and images (averaged between 60-120 min) were presented in Standard Uptake Value (SUV) units (g/mL) normalized by the weight of the animal and the injected dose.
Non-invasive Logan graphical analysis (start time of fit, t*=35 min) was used to estimate regional non-displaceable binding potential (BPND) using the TACs in the caudate and putamen, with the cerebellar cortex as the reference TAC. BPND was calculated in the in the caudate and putamen across baseline and NBI-750142 scans. Target occupancy was calculated according to Equation 1-1.
where h is the Hill slope (h=1.0) and C is the mean of observed plasma concentrations during the scanning interval (60 to 180 minutes post-dose).

[1] = NBI-750142 plasma concentration in healthy subjects; format: in vivo; conditions: human, 18 h post single oral dose, across cohorts, approximately, read-out: NBI-750142 plasma concentrations at T2

VMAT2, sequence (A0A2K5UVB8 entry or part of it): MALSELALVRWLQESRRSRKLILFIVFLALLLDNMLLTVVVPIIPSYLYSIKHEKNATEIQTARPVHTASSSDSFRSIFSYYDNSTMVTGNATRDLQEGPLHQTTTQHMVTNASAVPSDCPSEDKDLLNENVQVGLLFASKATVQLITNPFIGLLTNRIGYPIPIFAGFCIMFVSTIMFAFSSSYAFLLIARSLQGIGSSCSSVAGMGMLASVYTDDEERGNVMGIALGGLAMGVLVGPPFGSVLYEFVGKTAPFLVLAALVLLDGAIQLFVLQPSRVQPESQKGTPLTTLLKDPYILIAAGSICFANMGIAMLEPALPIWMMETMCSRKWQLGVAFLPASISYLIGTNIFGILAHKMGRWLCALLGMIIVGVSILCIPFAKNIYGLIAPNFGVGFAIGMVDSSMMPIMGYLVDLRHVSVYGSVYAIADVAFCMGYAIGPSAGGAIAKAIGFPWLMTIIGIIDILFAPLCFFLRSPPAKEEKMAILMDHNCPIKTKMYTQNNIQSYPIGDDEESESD

With `COc1cc2c(cc1OC)[C@H]1CN(C)[C@H](CC(C)(C)C)CN1CC2` [NBI-750142] the “[^18F]AV-133 BPND” value (VMAT2; animal EC865, Caudate, NBI-750142 0.084 mg/kg) was 2.39, the “[^18F]AV-133 BPND” value (VMAT2; animal EC865, Caudate, NBI-750142 0.52 mg/kg) was 1.01 and the “[^18F]AV-133 BPND” value (VMAT2; animal EC865, Putamen, NBI-750142 0.084 mg/kg) was 3.10. For the same compound, the “[^18F]AV-133 BPND” value (VMAT2; animal EC865, Putamen, NBI-750142 0.52 mg/kg) was 1.18, the “[^18F]AV-133 BPND” value (VMAT2; animal GC786, Caudate, NBI-750142 0.026 mg/kg) was 3.10 and the “[^18F]AV-133 BPND” value (VMAT2; animal GC786, Caudate, NBI-750142 0.26 mg/kg) was 2.22. The “[^18F]AV-133 BPND” value (VMAT2; animal GC786, Caudate, NBI-750142 0.78 mg/kg) was 0.33, the “[^18F]AV-133 BPND” value (VMAT2; animal GC786, Putamen, NBI-750142 0.026 mg/kg) was 3.53 and the “[^18F]AV-133 BPND” value (VMAT2; animal GC786, Putamen, NBI-750142 0.26 mg/kg) was 2.39. For the same compound, the “[^18F]AV-133 BPND” value (VMAT2; animal GC786, Putamen, NBI-750142 0.78 mg/kg) was 0.43, the “[^18F]AV-133 BPND” value (VMAT2; animal LC206, Caudate, NBI-750142 0.26 mg/kg) was 1.42 and the “[^18F]AV-133 BPND” value (VMAT2; animal LC206, Putamen, NBI-750142 0.26 mg/kg) was 1.61. The “[^18F]AV-133 binding post administration of NBI-750142” value (VMAT2; caudate and putamen vs baseline) was “dose-dependent decrease”, the receptor occupancy at 0.084 mg/kg (VMAT2; iv, read-out: % Occ, animal EC865, Caudate, 0.084 mg/kg) was 38.7% and the receptor occupancy at 0.52 mg/kg (VMAT2; iv, read-out: % Occ, animal EC865, Caudate, 0.52 mg/kg) was 74.2%. It also gave a receptor occupancy at 0.084 mg/kg (VMAT2; iv, read-out: % Occ, animal EC865, Putamen, 0.084 mg/kg) of 40.9%, a receptor occupancy at 0.52 mg/kg (VMAT2; iv, read-out: % Occ, animal EC865, Putamen, 0.52 mg/kg) of 77.5% and a receptor occupancy at 0.026 mg/kg (VMAT2; iv, read-out: % Occ, animal GC786, Caudate, 0.026 mg/kg) of 31.1%. The receptor occupancy at 0.26 mg/kg (VMAT2; iv, read-out: % Occ, animal GC786, Caudate, 0.26 mg/kg) was 50.8%, the receptor occupancy at 0.78 mg/kg (VMAT2; iv, read-out: % Occ, animal GC786, Caudate, 0.78 mg/kg) was 92.7% and the receptor occupancy at 0.026 mg/kg (VMAT2; iv, read-out: % Occ, animal GC786, Putamen, 0.026 mg/kg) was 25.8%. The receptor occupancy at 0.26 mg/kg (VMAT2; iv, read-out: % Occ, animal GC786, Putamen, 0.26 mg/kg) was 49.7%, the receptor occupancy at 0.78 mg/kg (VMAT2; iv, read-out: % Occ, animal GC786, Putamen, 0.78 mg/kg) was 90.9% and the receptor occupancy at 0.26 mg/kg (VMAT2; iv, read-out: % Occ, animal LC206, Caudate, 0.26 mg/kg) was 64.5%. The receptor occupancy at 0.26 mg/kg (VMAT2; iv, read-out: % Occ, animal LC206, Putamen, 0.26 mg/kg) was 63.7%, the receptor occupancy at 0.084 mg/kg (VMAT2; read-out: Target Occupancy, Mean of Putamen and Caudate, EC865, 0.084 mg/kg) was 40% and the receptor occupancy at 0.52 mg/kg (VMAT2; read-out: Target Occupancy, Mean of Putamen and Caudate, EC865, 0.52 mg/kg) was 76%. For the same compound, the receptor occupancy at 0.026 mg/kg (VMAT2; read-out: Target Occupancy, Mean of Putamen and Caudate, GC786, 0.026 mg/kg) was 28%, the receptor occupancy at 0.26 mg/kg (VMAT2; read-out: Target Occupancy, Mean of Putamen and Caudate, GC786, 0.26 mg/kg) was 50% and the receptor occupancy at 0.78 mg/kg (VMAT2; read-out: Target Occupancy, Mean of Putamen and Caudate, GC786, 0.78 mg/kg) was 92%. For the same compound, the receptor occupancy at 0.26 mg/kg (VMAT2; read-out: Target Occupancy, Mean of Putamen and Caudate, LC206, 0.26 mg/kg) was 64%, the “50% effective total concentration (EC50) of plasma NBI-750142 for VMAT2 occupancy” value (VMAT2; striatum, Emax model, Hill slope 1, cynomolgus monkey PET) was 0.011 µg/mL and the concentration at 18 h [1] was 0.3 to 10 ng/mL.
